Data on 38 molecules can be found in patent publication US10301299B2, “Glycosidase inhibitors” (Merck Patent GmbH, priority 2013, dated 2019).

The structures appear in SMILES notation.

For one assay, the target named is T1, His-Tagged hOGA (Homo sapiens, UniProt O60502).
T1 sequence (O60502 1-916): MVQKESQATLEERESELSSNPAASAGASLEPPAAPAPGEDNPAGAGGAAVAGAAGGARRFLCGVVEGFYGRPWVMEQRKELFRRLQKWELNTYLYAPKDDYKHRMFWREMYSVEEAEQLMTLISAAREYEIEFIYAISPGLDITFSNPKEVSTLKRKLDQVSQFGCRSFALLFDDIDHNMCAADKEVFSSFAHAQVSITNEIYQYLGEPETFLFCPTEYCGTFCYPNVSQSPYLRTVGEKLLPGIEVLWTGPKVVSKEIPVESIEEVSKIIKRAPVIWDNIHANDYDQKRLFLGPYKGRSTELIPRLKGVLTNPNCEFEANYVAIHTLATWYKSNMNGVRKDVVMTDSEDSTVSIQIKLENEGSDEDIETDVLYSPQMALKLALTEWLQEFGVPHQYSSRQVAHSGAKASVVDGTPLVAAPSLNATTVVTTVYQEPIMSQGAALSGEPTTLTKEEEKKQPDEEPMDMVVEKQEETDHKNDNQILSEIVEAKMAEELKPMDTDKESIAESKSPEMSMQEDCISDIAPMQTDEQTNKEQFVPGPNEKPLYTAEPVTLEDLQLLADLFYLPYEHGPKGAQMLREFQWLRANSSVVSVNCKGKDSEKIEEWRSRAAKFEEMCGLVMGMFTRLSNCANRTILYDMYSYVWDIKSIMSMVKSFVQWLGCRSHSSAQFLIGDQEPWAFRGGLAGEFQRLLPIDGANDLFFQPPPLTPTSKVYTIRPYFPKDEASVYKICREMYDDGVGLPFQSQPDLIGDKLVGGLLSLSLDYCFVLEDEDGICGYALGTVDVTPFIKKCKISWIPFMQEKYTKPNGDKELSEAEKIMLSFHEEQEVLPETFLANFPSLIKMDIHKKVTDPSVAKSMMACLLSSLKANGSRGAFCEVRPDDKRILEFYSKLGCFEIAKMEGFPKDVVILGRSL
Briefly: Human O-GlcNAcase enzyme inhibition assay. The class given is biochemical.
Settings: not given
How it is done:
The following reaction components were added to a final volume of 10 μL in Mcllvaine's Buffer (pH 6.5): 20 nM His-Tagged hOGA and 10 μM Fluorescein mono-beta-D-(2-deoxy-2-N-acetyl) glucopyranoside (FL-GlcNAc; Marker Gene Technologies Inc, Part # M1485). […] The amount of fluorescence measured was plotted against the concentration of inhibitor to produce a sigmoidal dose response curve, from which an IC50 was calculated.
For `CC(=O)Nc1ncc(CN2CCC(C#N)(c3ccccc3)CC2)s1` [Compound 23, N-[5-(4-cyano-4-phenyl-piperidin-1-ylmethyl)-thiazol-2-yl]-acetamide], the IC50 (as a rule, the midpoint of a concentration-inhibition curve) is over 10000 nM.
`CC(=O)Nc1ncc(CN2CCC(Cc3ccccc3)CC2C)s1` (centres unmarked) [Compound 51, N-(5-((4-BENZYL-2-METHYLPIPERIDIN-1-YL)METHYL)THIAZOL-2-YL)ACETAMIDE]: the IC50 was under 200 nM.
For the molecule `CC(=O)Nc1ncc(CN2CCC(Cc3ccc(C)cc3)CC2)s1` [Compound 54, N-(5-((4-(4-METHYLBENZYL)PIPERIDIN-1-YL)METHYL)THIAZOL-2-YL)ACETAMIDE], the IC50 was under 200 nM.
On the same count and under the same terms, then `COc1ccc(CC2CCN(Cc3cnc(NC(C)=O)s3)CC2)cc1` [Compound 55, N-(5-((4-(4-METHOXYBENZYL)PIPERIDIN-1-YL)METHYL)THIAZOL-2-YL)ACETAMIDE], with under 200 nM.

The same assay, now with this note: 20 nM His-Tagged hOGA, 10 μM FL-GlcNAc, pH 6.5, 60 min; read-out: hOGA enzyme inhibition (IC50).
As to `CC(=O)Nc1ncc(CN2CCC(Cc3ccccc3)C(F)C2)s1` (single isomer, unassigned) [Compound 52, N-(5-((-4-BENZYL-3-FLUOROPIPERIDIN-1-YL)METHYL)THIAZOL-2-YL)ACETAMIDE], the IC50 was under 200 nM.
For the molecule `CC(=O)Nc1ncc(CN2CCC(c3ccccc3)CC2)s1` [Compound 1, N-(5-((4-phenylpiperidin-1-yl)methyl)thiazol-2-yl)acetamide], the IC50 was under 200 nM.
Still for that read-out and setting: then `COC(=O)Nc1ncc(CN2CCC(c3ccccc3)CC2)s1` [Compound 2, [5-(4-Phenyl-piperidin-1-ylmethyl)-thiazol-2-yl]-carbamic acid methyl ester], with 1000 to 10000 nM; and `CCC(=O)Nc1ncc(CN2CCC(c3ccccc3)CC2)s1` [Compound 3, N-(5-((4-phenylpiperidin-1-yl)methyl)thiazol-2-yl)propionamide], with 200 to 1000 nM; and `C=CC(=O)Nc1ncc(CN2CCC(c3ccccc3)CC2)s1` [Compound 4, N-[5-(4-phenyl-piperidin-1-ylmethyl)-thiazol-2-yl]-acrylamide], with 1000 to 10000 nM.
The same measure, in the same setting: with `CCNc1ncc(CN2CCC(c3ccccc3)CC2)s1` [Compound 5, N-ethyl-5-((4-phenylpiperidin-1-yl)methyl)thiazol-2-amine] the figure was over 10000 nM.
Regarding `CCCNc1ncc(CN2CCC(c3ccccc3)CC2)s1` [Compound 6, 5-((4-phenylpiperidin-1-yl)methyl)-N-propylthiazol-2-amine], the half-inhibitory concentration (IC50) was over 10000 nM.
The same measure, in the same setting: with `Cc1ncc(CN2CCC(c3ccccc3)CC2)s1` [Compound 7, 2-methyl-5-((4-phenylpiperidin-1-yl)methyl)thiazole] the figure was over 10000 nM; with `CCc1ncc(CN2CCC(c3ccccc3)CC2)s1` [Compound 8, 2-ethyl-5-((4-phenylpiperidin-1-yl)methyl)thiazole], over 10000 nM.
The same measure, in the same setting: with `CC(=O)N(C)c1ncc(CN2CCC(c3ccccc3)CC2)s1` [Compound 9, N-methyl-N-(5-((4-phenylpiperidin-1-yl)methyl)thiazol-2-yl)acetamide] the figure was 1000 to 10000 nM; with `CNC(=O)Nc1ncc(CN2CCC(c3ccccc3)CC2)s1` [Compound 10, 1-methyl-3-(5-((4-phenylpiperidin-1-yl)methyl)thiazol-2-yl)urea], 1000 to 10000 nM; with `CS(=O)(=O)Nc1ncc(CN2CCC(c3ccccc3)CC2)s1` [Compound 11, N-[5-(4-phenyl-piperidin-1-ylmethyl)-thiazol-2-yl]-methanesulfonamide], over 10000 nM.
With `c1ccc(C2CCN(Cc3cnc(NC4CC4)s3)CC2)cc1` [Compound 12, N-cyclopropyl-5-((4-phenylpiperidin-1-yl)methyl)thiazol-2-amine], the IC50 was over 10000 nM.
Take `CC(=O)Nc1ncc(CN2CCC(c3ccccc3)CC2)o1` [Compound 13]: the IC50 was 1000 to 10000 nM.
The same measure, in the same setting: with `CC(=O)Nc1ncc(CN2CCC(c3ccc(C)cc3)CC2)s1` [Compound 14, N-(5-((4-(p-tolyl)piperidin-1-yl)methyl)thiazol-2-yl)acetamide] the figure was under 200 nM; with `CC(=O)Nc1ncc(CN2CCC(C)CC2)s1` [Compound 15, N-[5-(4-methyl-piperidin-1-ylmethyl)-thiazol-2-yl]-acetamide], 1000 to 10000 nM.
On the same count and under the same terms, then `CC(=O)Cc1ncc(CN2CCC(c3ccccc3)CC2)s1` [Compound 17], with over 10000 nM.
Same read-out and setting: then `CCC(=O)Cc1ncc(CN2CCC(c3ccccc3)CC2)s1` [Compound 18], with over 10000 nM.
As to `CC(=O)Nc1ncc(CN2CCC(O)(c3ccccc3)CC2)s1` [Compound 24, N-[5-(4-hydroxy-4-phenyl-piperidin-1-ylmethyl)-thiazol-2-yl]-acetamide], the IC50 lay in the range of 1000 to 10000 nM.
For the molecule `CC(=O)Nc1ncc(CN2CCC(N(C)C)CC2)s1` [Compound 34, N-(5-((4-(dimethylamino)piperidin-1-yl)methyl)thiazol-2-yl)acetamide], the half-maximal inhibitory concentration (IC50) was over 10000 nM.
Same read-out and setting: with `CC(=O)Nc1ncc(CN2CCC(c3ccccc3C(=O)O)CC2)s1` [Compound 44, 2-(1-((2-acetamidothiazol-5-yl)methyl)piperidin-4-yl)benzoic acid] the figure was over 10000 nM.
The same measure, in the same setting: then `CC(=O)Nc1ncc(CN2CCC(Cc3ccc(Cl)cc3)CC2)s1` [Compound 46, N-(5-((4-(4-chlorobenzyl)piperidin-1-yl)methyl)thiazol-2-yl)acetamide], with under 200 nM; and `CC(=O)Nc1ncc(CN2CCC(Cc3ccc4c(c3)OCO4)CC2)s1` [Compound 47], with under 200 nM.
For `CC(=O)Nc1ncc(CN2CCC(Cc3ccc(F)cc3)CC2)s1` [Compound 48, N-(5-((4-(4-FLUOROBENZYL)PIPERIDIN-1-YL)METHYL)THIAZOL-2-YL)ACETAMIDE], the concentration for half-maximal inhibition (IC50) is under 200 nM.
On the same count and under the same terms, with `CC(=O)Nc1ncc(CN2CCC(Cc3ccc(C(F)(F)F)cc3)CC2)s1` [Compound 49, N-(5-((4-(4-(TRIFLUOROMETHYL)BENZYL)PIPERIDIN-1-YL)METHYL)THIAZOL-2-YL)ACETAMIDE] the figure was under 200 nM; with `CC(=O)Nc1ncc(CN2CCC(Cc3cccc(F)c3)CC2)s1` [Compound 50, N-(5-((4-(3-FLUOROBENZYL)PIPERIDIN-1-YL)METHYL)THIAZOL-2-YL)ACETAMIDE], under 200 nM; with `CC(=O)Nc1ncc(CN2CCC(Cc3ccccc3)C(C)C2)s1` (centres unmarked) [Compound 53, N-(5-((4-BENZYL-3-METHYLPIPERIDIN-1-YL)METHYL)THIAZOL-2-YL)ACETAMIDE], under 200 nM.
Turning to `CC(=O)Nc1ncc(CN2CCC(Cc3ccc4ccccc4c3)CC2)s1` [Compound 56], the IC50 is under 200 nM.
Still for that read-out and setting: then `CC(=O)Nc1ncc(CN2CCN(C(C)c3ccc4c(c3)OCO4)CC2)s1` (centres unmarked) [Compound 58, N-(5-((4-(1-(BENZO[D][1,3]DIOXOL-5-YL)ETHYL)PIPERAZIN-1-YL)METHYL)THIAZOL-2-YL)ACETAMIDE], with 1000 to 10000 nM.
On to `CC(c1ccc2c(c1)OCO2)N1CCN(Cc2cnc(N3CCNC(=O)C3)s2)CC1` (centres unmarked) [Compound 59, 4-(5-((4-(1-(BENZO[D][1,3]DIOXOL-5-YL)ETHYL)PIPERAZIN-1-YL)METHYL)THIAZOL-2-YL)PIPERAZIN-2-ONE], for which the half-maximal inhibitory concentration (IC50) was in the range of 1000 to 10000 nM.
Consider `CC(=O)Nc1ncc(CN2CCC(Oc3ccccc3)CC2)s1` [Compound 61, N-(5-((4-PHENOXYPIPERIDIN-1-YL)METHYL)THIAZOL-2-YL)ACETAMIDE], for which the IC50 fell in the range of 200 to 1000 nM.
With `CC(=O)Nc1ncc(CN2CCC(CCc3ccccc3)CC2)s1` [Compound 62], the IC50 is under 200 nM.
In the case of `CC(=O)Nc1ncc(CN2CCC(Cc3ccc4nccnc4c3)CC2)s1` [Compound 63], the IC50 was under 200 nM.
`CC(=O)Nc1ncc(CN2CCC(Cc3cc(F)cc(F)c3)CC2)s1` [Compound 64, N-(5-((4-(3,5-DIFLUOROBENZYL)PIPERIDIN-1-YL)METHYL)THIAZOL-2-YL)ACETAMIDE]: the IC50 was under 200 nM.

The next assay has as its system B35 rat neuroblastoma cells. Briefly: Cellular O-GlcNAcylation assay (tau O-GlcNAc S400, ICC). To be noted: Neuroblastoma cell, 16 h, tau O-GlcNAcylated at serine 400. It is filed as cell-based. How it is done:
The following day cells were treated with appropriate concentration of a solution of inhibitor for 16 h at 37° C. in 5% CO2. Cells were fixed in 100 μl 4% paraformaldehyde for 15 min at room temperature, followed by three washes in PBS buffer. The cells were then permeabilized with 0.1% Triton X-100 for 60 min at room temperature. After three washes in PBS the cells were blocked with 10% goat serum containing 1% BSA in PBS buffer for two hours at room temperature. The cells were then incubated with a monoclonal rabbit antibody specific for tau O-GlcNAcylated at serine 400 (Epitomics) at a 1:1000 dilution overnight at 4° C. […] To calculate an EC50 the total peak intensity was plotted against the concentration of inhibitor to produce a sigmoidal dose response curve.
As for `CC(=O)Nc1ncc(CN2CCC(c3ccccc3)CC2)s1` [Compound 1, N-(5-((4-phenylpiperidin-1-yl)methyl)thiazol-2-yl)acetamide], the concentration giving a half-maximal response (EC50) (commonly the concentration giving half of the maximal effect) was in the range of 200 to 1000 nM.
`COC(=O)Nc1ncc(CN2CCC(c3ccccc3)CC2)s1` [Compound 2, [5-(4-Phenyl-piperidin-1-ylmethyl)-thiazol-2-yl]-carbamic acid methyl ester] returned a half-maximal effective concentration (EC50) of over 10000 nM.
In turn, `CC(=O)Nc1ncc(CN2CCC(c3ccc(C)cc3)CC2)s1` [Compound 14, N-(5-((4-(p-tolyl)piperidin-1-yl)methyl)thiazol-2-yl)acetamide] displayed a concentration giving a half-maximal response (EC50) of 200 to 1000 nM.
